Data set [1] concerns HT29. As to conditions: cited from earlier work.
In data set [2] the test system is A549. As to conditions: cited from earlier work.
Data set [3] has as its system MCF7. As to conditions: cited from earlier work.
Data set [4] deals with normal human dermal fibroblasts (NHDF). In words: MTT viability assay, NHDF. The format is cell-based. As to conditions: tested 1–500 µM. On the procedure:
(§1) When the confluence was greater than 70%, adherent cell lines were detached from the bottle surface with a TrypLE solution and then used in assays or reduced. The cells were collected into centrifuge tubes and centrifuged at 1000× g for 5 min at room temperature. The supernatant was removed to dry. The cell pellets were then resuspended in an appropriate medium. The cells were counted using a Bürker chamber and resuspended in 96-well plates to a cell density of 10,000 cells per well for MTT assay. For the rhodamine accumulation test and the detection of apoptosis assay, cells were seeded at a density of 30,000 per well. In the migration assay, cells were seeded at a density of 20,000 per well, and monolayer formation was awaited.
(§2) In this study, normal human dermal fibroblasts (NHDFs), breast cancer cells (MCF7), human lung adenocarcinoma cells (A549), murine fibroblasts (L929), colon adenocarcinoma cells (HT29), and colorectal adenocarcinoma cells (LoVo) were used. All cell lines were cultured in the recommended media. […] The human lung adenocarcinoma cell line A549 and breast cancer cell line MCF-7 were obtained from the ECACC. These cell lines were cultured in Eagle’s minimal essential medium (MEM). Murine fibroblast L929 (Sigma-Aldrich, Merck Group, Headquarters, Darmstadt, Germany; the European Collection of Authenticated Cell Cultures—ECACC) cells were grown in DMEM. […] All media were supplemented with 10% FBS and 100 µg/mL of penicillin–streptomycin.
(§3) All compounds were dissolved in DMSO and the reference drugs were dissolved in physiological saline to concentrations of 10 mM. Concentrations from 1 to 500 μM in the media recommended for the cell lines were prepared for the tests.
(§4) All of the synthesized derivatives were evaluated via the MTT assay. All cell lines were seeded into 96-well plates at a density of 10,000 cells per well. To allow the cells to adhere to the surface of the plates, they were incubated overnight before the application of the test compounds. […] The tests were performed for concentrations of 1, 5, 10, 25, 50, 100, 250, and 500 μM. The solutions of the test compounds were removed from the culture on the 96-well plates. […] The supernatant was then removed. The violet crystal was dissolved in isopropanol for 30 min by shaking. Absorbance was measured at 570 nm.
(§5) Biological assays were performed in three independent replicates, and each replicate used four samples. Three repetitions were made for the ELISA determinations. For the assessment of cytotoxicity, mathematical models were developed using the GraphPad PRISM software, based on which CC50 was determined. The values of CC50 were estimated based on nonlinear regression using the dependence of the biological effect on the molar concentrations of the compounds (four-parameter logistic model with Hill slope).
A general note: Tetrazolium assays rely on reduction of a dye to a coloured formazan, in cell work by metabolically active cells.

The test system of data set [5] is lung adenocarcinoma (A549). In words: MTT viability assay, A549. The format is cell-based, human. How it is done: as §1, §2, §3, §4, §5
For data set [6], the system named is breast adenocarcinoma (MCF7). In words: MTT viability assay, MCF7. The format is cell-based, human. As to conditions: for SI (selectivity index): CC50 NHDF / CC50 MCF7; for CC50: Homo sapiens. How it is done: as §1, §2, §3, §4, §5
Data set [7] concerns primary colon adenocarcinoma (HT29). In words: MTT viability assay, HT29. As to conditions: for SI (selectivity index): CC50 NHDF / CC50 HT29; for CC50: Homo sapiens, HT-29, HT29, MTT; for CC50 / CC50 ± SD: tested 1–500 µM; for CC50 ± SD: HT29, MTT. The format is cell-based, human. On the procedure: as §1, §2, §3, §4, §5
A short description of data set [8]: MTT viability assay, L929. Type of data set: cell-based, murine. As to conditions: mouse, L929 fibroblasts, tested 1–500 µM. How it is done: as §1, §2, §3, §4, §5
Data set [9] in a line: MTT viability assay, NHDF. Type of data set: cell-based, human. As to conditions: human, normal human dermal fibroblasts (NHDF), tested 1–500 µM. On the procedure: as §1, §2, §3, §4, §5
Data set [10] has as its system metastatic colon adenocarcinoma (LoVo). In words: MTT viability assay, LoVo. Type of data set: cell-based, human. On the procedure: as §1, §2, §3, §4, §5
For data set [11], the system named is murine fibroblasts (L929). In words: MTT viability assay, L929. The format is cell-based. As to conditions: tested 1–500 µM. On the procedure:
as §1, §2, §3, §4, §5

Data set [12] deals with HT29 primary colon adenocarcinoma cells. In words: Detection of apoptosis (Annexin V FITC / propidium iodide). The format is cell-based, human. Set-up: unit not given here. As to conditions: 24 h. How it is done:
as §1, with “All cell lines were grown in 5% CO2 at 95% humidity and 37 °C, with both morphology and confluence assessed twice per week. When” for “When”
HT29 primary colon adenocarcinoma cells were grown in 96-well plates for 24 h. The 5 selected derivatives were added at concentrations of 1, 2, 5, and 10 µM, and then incubated for 24 h. The mixture of Annexin V conjugated with fluorescein and propidium iodide in PBS with Mg^2+ and Ca^2+ ions (Thermo Fisher Scientific, Waltham, MA, USA) was then applied. The incubation lasted 20 min at 37 °C. Pictures were taken using a fluorescence microscope. Thirteen images were taken from each well using an EVOS FL fluorescence microscope, with three replications for each compound. The open ImageJ space was used to analyze the number of cells. The Thermo Fisher Dead Cell Apoptosis Kit with Annexin V FITC and Propidium Iodide (PI) detects phosphatidylserine extrusion in apoptotic cells using Annexin V conjugated with a green fluorescent FITC dye and dead cells stained by PI with red fluorescence.

For data set [13], the system named is LoVo. As to conditions: cited from earlier work.
Data set [14] deals with HT29 cells. Also noted: method as in PMID 27002410. As to conditions: cited from earlier work.

“Also recorded” adds a separate entry of the source. Read-outs that look alike come from different tables or passages of the source.

This is an account of results in publication PMC9569971, “New Oxazolo[5,4-d]pyrimidines as Potential Anticancer Agents: Their Design, Synthesis, and In Vitro Biological Activity Research” (International Journal of Molecular Sciences, 2022).

In general, IC50 refers to the concentration at which inhibition is half-maximal. For orientation: melting point means the temperature of the solid-liquid transition. One may read the CC50 as the concentration that lowers cell viability or growth by half.

Regarding `COc1cc2nccc(Oc3ccc(NC(=O)C4(C(=O)Nc5ccc(F)cc5)CC4)cc3)c2cc1OC` [Cabozantinib], the IC50 was 11.5 ± 1.1 µM in data set [1] (ref 67); 9.52 ± 0.91 µM in data set [2] (ref 67, read-out: IC50 (converted)); 15.2 µM in data set [2] (ref 68, read-out: IC50 (converted)); 14.3 ± 0.87 µM in data set [3].
For the molecule `CCNc1ncnc2oc(-c3c(C)noc3N)nc12` [Compound 3b, 2-(5-Amino-3-methylisoxazol-4-yl)-7-N-ethylaminooxazolo[5,4-d]pyrimidine], the melting point was 253 to 254 °C (dec.). In addition, in data set [4], the “CC50 ± SD” value is “Non-toxic”. Further, in [5] (A549, MTT, tested 1–500 µM), the “CC50 ± SD” value was “no activity”. Also, in [6], the “SI (selectivity index)” value is >>1. Further, it took 193 ± 16.9 µM to reach half-maximal cytotoxicity in data set [6] (MCF7, MTT, tested 1–500 µM) (CC50). In data set [7], the “SI (selectivity index)” value is recorded as >>1 and it took 194 ± 15.4 µM to reach half-maximal cytotoxicity (CC50). For the same molecule, half-maximal cytotoxicity in data set [8] (CC50) was put at 235 ± 11.5 µM.
`CCCCNc1ncnc2oc(-c3c(C)noc3N)nc12` [Compound 3d, 2-(5-Amino-3-methylisoxazol-4-yl)-7-N-butylaminooxazolo[5,4-d]pyrimidine]: the melting point was 239 to 240 °C (dec.). In [9], this molecule gave a CC50 of 126 ± 9.87 µM. The “SI (selectivity index)” value in data set [5] (CC50 NHDF / CC50 A549) is given as 0.705. The molecule also showed a CC50 in data set [5] (Homo sapiens, A549, MTT, tested 1–500 µM) of 179 ± 14.9 µM. The “SI (selectivity index)” value in data set [6] is 0.944. In [6] (MCF7, MTT, tested 1–500 µM), this molecule displayed a CC50 of 134 ± 14 µM. Moreover, in [7], the “SI (selectivity index)” value was determined as 0.820 and it took 154 ± 13.4 µM to reach half-maximal cytotoxicity (CC50). Moreover, in data set [10] (CC50 NHDF / CC50 LoVo), the “SI (selectivity index)” value is 0.558. In data set [10] (Homo sapiens, LoVo, MTT, tested 1–500 µM), half-maximal cytotoxicity (CC50) was put at 226 ± 8.28 µM. For the same molecule, the “CC50 ± SD” value in data set [11] is listed as “no toxic activity; also recorded: Non-toxic”.
Take `Cc1noc(N)c1-c1nc2c(NCCO)ncnc2o1` [Compound 3h, 2-(5-Amino-3-methylisoxazol-4-yl)-7-N-(2-hydroxyethyl)aminooxazolo[5,4-d]pyrimidine]: the melting point is 213 to 214 °C (dec.). Also, the “CC50 ± SD” value in data set [4] is listed as “Non-toxic”. Further, in data set [6] (MCF7, MTT, tested 1–500 µM), the “CC50 ± SD” value was “no cytotoxic activity”. The “CC50 ± SD” value in data set [7] was “lack cytotoxic activity”. In addition, the CC50 in [8] stood at 146 ± 11.1 µM.
Consider `Cc1noc(N)c1-c1nc2c(NCCCO)ncnc2o1` [Compound 3i, 2-(5-Amino-3-methylisoxazol-4-yl)-7-N-(3-hydroxypropyl)aminooxazolo[5,4-d]pyrimidine], for which the melting point was 225 to 226 °C (dec.). Also, the “CC50 ± SD” value in [4] is reported as “Non-toxic”. Moreover, the “SI (selectivity index)” value in [6] was >>1. The molecule further gave a CC50 in [6] (MCF7, MTT, tested 1–500 µM) of 251 ± 22.1 µM. Besides, in data set [7], the “CC50 ± SD” value is “lack cytotoxic activity”. This molecule also returned a CC50 in [8] of 171 ± 22.8 µM.
On to `Cc1noc(N)c1-c1nc2c(NCCN3CCOCC3)ncnc2o1` [Compound 3j, 2-(5-Amino-3-methylisoxazol-4-yl)-7-N-[2-(morpholin-4-yl)ethyl]aminooxazolo[5,4-d]pyrimidine], for which the “CC50 ± SD” value in data set [4] is “no toxicity at all; also recorded: Non-toxic”. For the same molecule, the “SI (selectivity index)” value in data set [6] and in data set [7] was >>1 throughout. Also, the CC50 in data set [6] (MCF7, MTT, tested 1–500 µM) turned out to be 197 ± 13.1 µM; in [7], 99.9 ± 10.9 µM; in data set [8] it was 52.9 ± 9.51 µM. For the same molecule, the apoptosis mean amounted to 5.45 in data set [12] (1 μM), 8.18 in [12] (2 μM), 8.28 in data set [12] (5 μM) and 1.34 in data set [12] (10 μM). Also, the late apoptosis mean is on record as 29.25 in data set [12] (1 μM), 26.44 in data set [12] (2 μM), 30.59 in data set [12] (5 μM) and 13.55 in data set [12] (10 μM). Besides, the necrosis mean in data set [12] (1 μM) is given as 8.01; in [12] (2 μM), 3.92; in data set [12] (5 μM), 3.45; in [12] (10 μM) it was 32.35. The “percent live (viable) cells” value in data set [12] (1 μM) was 57.30; in [12] (2 μM), 61.47; in data set [12] (5 μM), 57.69; in [12] (10 μM), 52.76.
Take `Cc1ccc(Nc2nccc(N(C)c3ccc4c(C)n(C)nc4c3)n2)cc1S(N)(=O)=O` [Pazopanib]: the IC50 was above 5 µM in [1] (ref 77); 4 to 6 µM in [2] (ref 75, read-out: IC50 (converted)); 6.29 µM in [3].
Take `CNC(=O)c1cc(Oc2ccc(NC(=O)Nc3ccc(Cl)c(C(F)(F)F)c3)c(F)c2)ccn1` [Regorafenib]: the IC50 is 2.75 ± 0.18 µM in [1] (ref 66) and 2 µM in data set [13].
As for `CNC(=O)c1cc(Oc2ccc(NC(=O)Nc3ccc(Cl)c(C(F)(F)F)c3)cc2)ccn1` [Sorafenib], the IC50 in [1] (ref 80) is 17.3 ± 3.8 µM; in data set [13], 31 µM; in [2] (ref 80, read-out: IC50 (converted)), 5.62 ± 2.13 µM.
For `CCN(CC)CCNC(=O)c1c(C)[nH]c(/C=C2\C(=O)Nc3ccc(F)cc32)c1C` [Sunitinib], the IC50 in [1] (ref 78) is 4.89 µM; in data set [1] (ref 79), 2.25 µM; in data set [13], 4.18 ± 0.27 µM; in data set [2] (ref 78, read-out: IC50 (converted)), 6.98 µM; in [3] it was 7.3 µM.
`COc1cc2nccc(Oc3ccc(NC(=O)Nc4cc(C)on4)c(Cl)c3)c2cc1OC` [Tivozanib]: the IC50 was 0.19 ± 0.04 µM in data set [2] (ref 64, read-out: IC50 (converted)) and 0.25 ± 0.03 µM in data set [3].
On to `COc1cc2c(Nc3ccc(Br)cc3F)ncnc2cc1OCC1CCN(C)CC1` [Vandetanib], for which the IC50 in [1] (ref 74) is 10 ± 0.4 µM; in [13], 3.5 ± 0.9 µM; in [2] (ref 72, read-out: IC50 (converted)), 2.7 ± 0.5 µM; in data set [3] it was 12.2 ± 0.28 µM.
In the case of `COc1ccc(CCN(C)CCCC(C#N)(c2ccc(OC)c(OC)c2)C(C)C)cc1OC` (centres unmarked) [verapamil], the “intracellular fluorescence intensity of Rh-123, increase” value in [14] (HT29, treatment 48 h) is given as 1.77 fold; in data set [14] (HT29, treatment 72 h), 1.9 fold.
